What was measured:
[1] = biological target: T1, E. coli β-galactosidase (LacZ) (Escherichia coli, UniProt P00722); details: Huang, 1991, cited from earlier work
[2] = biological target: T1, E. coli β-galactosidase (LacZ); type: biochemical
Procedure: In the enzyme inhibition assay, the rate of catalysis is determined by using a non-fluorescent substrate for LacZ, fluorescein mono-β-D-galactoside (FMG) (FMG), and measuring the appearance of the fluorescent product, fluorescein (excitation 488 nm, emission 514 nm). All components of the LacZ inhibition assay are dissolved in assay buffer (10 mm MgCl2, 50 mM NaCl, 1 mM DTT, 100 μg/ml BSA, 10 mM Tris-HCl, pH 7.9.
Leading into each droplet forming module (FIG. 15) are two Teflon tubes leading from syringe pumps. The channels leading from each tube merge to create a single flow before entering the droplet forming module. The two syringes feeding into the first droplet forming module contain, (a) 50 μM PETG in assay buffer, and (b), assay buffer. The two syringes feeding into the second droplet forming module contain, (c) 100 nM LacZ in assay buffer and (d), assay buffer. The two syringes feeding into the third droplet forming module contain, (e) 5 mM FMG in assay buffer, and (f), assay buffer. The final concentration of each component in each droplet is independently controllable by adjusting relative flow rates of each component and buffer solution while maintaining a constant combined flow rate from both syringes.
The first droplet fusion mixes the inhibitor (PETG) with the enzyme (LacZ). After the combined droplet has spent two minutes in a delay line it is fused with a third droplet containing the fluorogenic enzyme substrate (FMG). Finally, after all the components are mixed the reaction is observed by measuring fluorescence of individual droplets or by integrating fluorescent light from droplets with the same concentration of each component during 10-second exposure time at multiple points in the second 10 min long delay line. Each fluorescence intensity value at different positions is proportional to the amount of product at different reaction times. Rate of product formation is linear during initial reaction time and initial rate (ν) can be determined from linear fitting. […]

PTP1B = biological target: T2, PTP1B (Homo sapiens, UniProt P18031); details: Johnson et al., 2002; cited from earlier work
T2 sequence (P18031 1-435): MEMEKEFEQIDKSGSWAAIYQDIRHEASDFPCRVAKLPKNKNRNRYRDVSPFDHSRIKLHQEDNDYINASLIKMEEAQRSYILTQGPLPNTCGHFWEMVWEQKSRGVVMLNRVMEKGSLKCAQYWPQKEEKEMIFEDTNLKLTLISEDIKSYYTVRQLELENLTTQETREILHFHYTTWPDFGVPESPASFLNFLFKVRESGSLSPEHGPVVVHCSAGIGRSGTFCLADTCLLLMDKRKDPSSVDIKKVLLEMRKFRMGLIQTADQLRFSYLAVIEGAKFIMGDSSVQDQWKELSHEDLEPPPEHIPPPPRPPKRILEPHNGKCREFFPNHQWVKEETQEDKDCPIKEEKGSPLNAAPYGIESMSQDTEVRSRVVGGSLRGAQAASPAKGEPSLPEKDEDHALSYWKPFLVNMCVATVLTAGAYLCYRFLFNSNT

[3] = biological target: T3, human recombinant PTP1B, residues 1-322 (Homo sapiens, UniProt P18031); test: Screening for PTP1B inhibitors using microcapsules in a microfluidic system (DiFMUP fluorescence); type: biochemical; details: 100 μM compound solution, PTP1B 50 mU/ml, substrate DiFMUP, excitation/emission 358/452 nm
T3 construct: human recombinant PTP1B, residues 1-322; purchased Biomol Research Laboratories, Inc
T3 sequence (P18031 1-322): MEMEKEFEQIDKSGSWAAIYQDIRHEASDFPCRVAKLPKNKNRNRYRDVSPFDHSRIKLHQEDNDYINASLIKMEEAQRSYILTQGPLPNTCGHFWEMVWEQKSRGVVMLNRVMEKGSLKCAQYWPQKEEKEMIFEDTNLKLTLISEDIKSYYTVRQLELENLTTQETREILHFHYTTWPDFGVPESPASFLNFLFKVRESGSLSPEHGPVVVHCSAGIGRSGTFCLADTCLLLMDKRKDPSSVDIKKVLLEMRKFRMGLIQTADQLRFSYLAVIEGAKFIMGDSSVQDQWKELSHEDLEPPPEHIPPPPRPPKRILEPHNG
Procedure: All water-soluble reagents are dissolved in (25 mM HEPES, pH 7.4, 125 mM NaCl, 1 mM EDTA), a buffer compatible with PTP1B activity. […] Each microcapsule containing target enzyme is fused with a microcapsule containing compound 2 or a microcapsule containing hydrocinnamic acid. Microcapsules containing either compound 2 or hydrocinnamic acid can be formed by switching between injection with syringes containing compound 2 and hydrocinnamic acid.
After microcapsule fusion the contents are rapidly mixed. After this point the microcapsules are run for up to 1 min through a 60 cm long microchannel (to allow inhibitor binding). This microchannel is then merged with a second microchannel containing, aqueous microcapsules containing the fluorogenic PTP1B substrate 6,8-difluoro-4-methylumbelliferyl phosphate (DiFMUP) (Molecular Probes) in 25 mM HEPES, pH 7.4, 125 mM NaCl, 1 mM EDTA and the microcapsules fused pairwise. The fused microcapsules are then run for up to 2 min through a 60 cm long microchannel. Fluorescence of the microcapsules due to production of DiFMU (excitation/emmission maxima 358/452 nm; blue fluorescence) is measured.

[4] = Compartmentalisation of small molecules in water-in-fluorocarbon emulsions (epifluorescence microscopy); type: physicochemical; details: water-in-perfluorooctyl bromide emulsions mixed by vortexing, imaged after 24 hours
Procedure: FIG. 19. Compartmentalisation of small molecules in water-in-fluorocarbon emulsions. Water-in-perfluorooctyl bromide emulsions were made containing texas red (1 mM) and calcein ([…] in the aqueous phase by homogenisation as described in example 9. The two emulsions were mixed by vortexing and imaged by epifluorescence microscopy after 24 hours. No exchange of texas-red (red fluorescence) and calcein (green fluorescence) between microdroplets could be observed.
Water-in-fluorocarbon emulsions containing 95% (v/v) perfluorooctyl bromide, 5% (v/v) phosphate buffered saline containing the molecule of interest in solution, and 2% (w/v) C8F17C11H22OP(O)[N(CH2CH2)2O]2 (F8H1DMP) as surfactant were formed essentially as (Sadtler et al., 1996) by extrusion (15 times) through 14 μm filters (Osmonics) or by homogenising for 5 min at 25,000 r.p.m. using an Ultra-Turrax T8 Homogenizer (IKA) with a 5 mm dispersing tool. Emulsions were made containing a series of small fluorescent molecules dissolved in the aqueous phase at concentrations from […] to 2 mM. These molecules, including calcein, texas red, fluorescein, coumarin 102, 7-hydroxycoumarin-3-carboxylic acid and 7-diethylamino-4-methyl coumarin (coumarin 1), had molecular weights from 203 to 625 Da and Log P values—calculated using SRC's Log Kow/KowWin Program (Meylan and Howard, 1995)—ranging from −0.49 to 4.09. […]

[5] = 30 nM LacZ, 0 to 13 μM PETG, 10 to 700 μM FMG

T1 sequence (P00722 2-1024): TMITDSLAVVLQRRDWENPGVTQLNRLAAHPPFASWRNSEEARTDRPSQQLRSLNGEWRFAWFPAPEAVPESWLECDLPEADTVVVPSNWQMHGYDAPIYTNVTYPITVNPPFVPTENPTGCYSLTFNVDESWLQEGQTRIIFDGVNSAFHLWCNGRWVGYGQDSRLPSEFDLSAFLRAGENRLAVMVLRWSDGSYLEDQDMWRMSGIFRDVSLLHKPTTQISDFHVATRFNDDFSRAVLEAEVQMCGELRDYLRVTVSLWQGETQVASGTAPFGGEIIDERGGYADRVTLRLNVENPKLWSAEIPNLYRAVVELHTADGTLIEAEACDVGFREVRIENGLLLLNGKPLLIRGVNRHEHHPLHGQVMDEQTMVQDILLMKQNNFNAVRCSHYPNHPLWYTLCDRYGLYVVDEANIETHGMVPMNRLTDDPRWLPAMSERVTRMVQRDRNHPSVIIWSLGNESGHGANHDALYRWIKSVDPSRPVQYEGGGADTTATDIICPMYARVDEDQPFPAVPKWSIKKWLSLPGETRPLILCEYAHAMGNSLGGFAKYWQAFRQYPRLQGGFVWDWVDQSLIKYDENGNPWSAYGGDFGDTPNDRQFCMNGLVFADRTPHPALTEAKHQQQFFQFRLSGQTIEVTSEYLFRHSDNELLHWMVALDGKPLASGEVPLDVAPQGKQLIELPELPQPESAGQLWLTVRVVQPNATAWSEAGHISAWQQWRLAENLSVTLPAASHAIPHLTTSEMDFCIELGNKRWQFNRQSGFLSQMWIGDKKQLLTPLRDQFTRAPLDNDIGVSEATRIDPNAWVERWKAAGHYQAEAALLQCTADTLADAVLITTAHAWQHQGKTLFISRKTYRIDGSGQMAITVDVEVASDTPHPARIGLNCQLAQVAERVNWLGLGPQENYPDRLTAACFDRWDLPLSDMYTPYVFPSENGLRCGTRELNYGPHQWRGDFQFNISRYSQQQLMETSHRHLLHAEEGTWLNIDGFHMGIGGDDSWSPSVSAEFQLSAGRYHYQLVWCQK

Q: For O=C1OC2(c3ccc(O)cc3Oc3cc(O[C@@H]4O[C@H](CO)[C@H](O)[C@H](O)[C@H]4O)ccc32)c2ccccc21 (stereo partly drawn) [FMG, fluorescein mono-β-D-galactoside], which Km ([1]; read-out: KM of FMG for LacZ, previously published value) is on record?
A: Its Km is 118 µM.

Q: What about the “KM of FMG for LacZ determined in fused microcapsules, deviation from previously published value” [2, 5] of the same compound?
A: Its value is at most 20%.

Q: What does the source list for O=C(O)CCc1ccccc1 [hydrocinnamic acid]?
A: PTP1B inhibitor status / relative potency (PTP1B): not a PTP1B inhibitor; Fluorescence of the microcapsules due to production of DiFMU (blue fluorescence) [3]: exhibiting blue fluorescence

Q: For texas red, which Exchange between microdroplets/compartments [4] is on record?
A: The Exchange between microdroplets/compartments was “No exchange”.

Q: With OCC1OC(SCCc2ccccc2)C(O)C(O)C1O [PETG, phenylethyl β-D-thiogalactopyranoside] as the compound, how does the Ki ([1]; read-out: Ki of PETG for LacZ, previously published value) read?
A: Its Ki is 980 nM.

Q: And the “Ki of PETG for LacZ determined in fused microcapsules” value [2, 5]?
A: The value was “within the range of the previously published value”.

Q: What about the Mode of inhibition ([2]; Lineweaver-Burk plot, same y-intercept at different PETG concentrations) of the same compound?
A: The Mode of inhibition was “competitive”.

Q: With O=C(O)CN(CC(=O)O)Cc1cc2c(cc1O)Oc1cc(O)c(CN(CC(=O)O)CC(=O)O)cc1C21OC(=O)c2ccccc21 [calcein] as the compound, how does the Exchange between microdroplets/compartments [4] read?
A: Its Exchange between microdroplets/compartments is “No exchange”.
